Patent publication US20250368647A1, “NITROGEN CONTAINING CONDENSED 2,3-DIHYDROQUINAZOLINONE COMPOUNDS AS NAV1.8 INHIBITORS” (GLAXOSMITHKLINE INTELLECTUAL PROPERTY DEVELOPMENT LIMITED, priority 2022, published 2025)
Structures can show the parent of a compound that is named as a salt.

Molecular target: human Nav1.8 (Homo sapiens (Human), UniProt Q9Y5Y9)
Assay: QPatch 48 HTX voltage-clamp electrophysiology, half inactivation state (V1/2) protocol, HEK293-Nav1.8 cells
Assay type: cell-based
Settings: HEK293 cells expressing human Nav1.8, human Navβ1 and human TREK1, P2 current; for IC50: read-out: Nav1.8, pIC50 (converted)
Procedure: Human embryonic kidney 293 cells (HEK293) expressing human Nav1.8, human Navβ1 and human TREK1 (HEK293-Nav1.8) were grown in T150 cell culture flasks at 37° C., 5% CO2 incubator. HEK293-Nav1.8 were passaged every 2-3 days when confluency reached 80-90% in T150 cell culture flasks.
Pharmacological assessment of compounds of the invention was performed using the QPatch 48 HTX electrophysiological platform. HEK293-Nav1.8 cells were prepared on the day of use by removing culture media, washing in DPBS, adding Accutase (2 mL to cover the surface, aspirate 1 mL then 1-2 minutes at 37° C.) followed by addition of CHO-SFM II to stop the enzyme digestion and in order to obtain a suspension of 3×10^6 cell/mL.
Compounds of the invention were prepared in an extracellular solution of the following composition: NaCl (145 mM), KCl (4 mM), CaCl2) (2 mM), MgCl (2 mM), HEPES (1 mM), Glucose (10 mM), pH 7.4 with NaOH Osmolality 300 mOsM/L. An intracellular solution of the following composition was used: CsF (115 mM), CsCl (20 mM), NaCl (5 mM), EGTA (10 mM), HEPES (10 mM), Sucrose (20 mM), pH 7.2 with CsOH Osmolality 310 mOsm/L.
Utilizing the voltage-clamp mode in the QPatch 48 HTX system a half inactivation state voltage protocol (V1/2) was used to determine pharmacological activity of compounds of the invention at Nav1.8 ion channels. A V1/2 protocol was utilized with the following voltage steps: a holding voltage of −100 mV was established followed by a 20 ms voltage step to 0 mV (P1), followed by an inactivating voltage step at −46 mV for 8 seconds, followed by a step to −100 mV for 20 ms, before a 20 ms step to 0 mV (P2), then returned to the holding voltage of −100 mV. This voltage protocol was repeated at a frequency of every 15 seconds, the current magnitude was quantified at the P2 step throughout the recording. Inhibition of the measured current amplitude with compounds of the invention was analyzed by fitting a 4-6 points dose-response curve allowing determination of the fifty percent inhibition concentration (IC50). P2 currents were normalized according to measurements made at baseline (Baseline, vehicle only), after compound (Input, at each test concentration), and after positive reference compound (FullResponse, to achieve complete block), fit to the following equation: […]
To assess current run-down over the course of the experiment vehicle-only wells were utilized and the normalized current with vehicle-only (n.IVEH) was determined. To correct the compound response for run-down, the currents were corrected according to the following formula: […]
Compound inhibition was fitted to the following Hill Equation to estimate the half maximal inhibition concentration (IC50)
[formula] • where Y is the normalized run-down corrected inhibition relative to the vehicle control (equivalent to n.IRD_Correct), C the test compound concentration, IC50 the concentration of test compound to inhibit the sodium current by 50%, and h the Hill coefficient.

human Nav1.8, sequence (Q9Y5Y9 whole entry): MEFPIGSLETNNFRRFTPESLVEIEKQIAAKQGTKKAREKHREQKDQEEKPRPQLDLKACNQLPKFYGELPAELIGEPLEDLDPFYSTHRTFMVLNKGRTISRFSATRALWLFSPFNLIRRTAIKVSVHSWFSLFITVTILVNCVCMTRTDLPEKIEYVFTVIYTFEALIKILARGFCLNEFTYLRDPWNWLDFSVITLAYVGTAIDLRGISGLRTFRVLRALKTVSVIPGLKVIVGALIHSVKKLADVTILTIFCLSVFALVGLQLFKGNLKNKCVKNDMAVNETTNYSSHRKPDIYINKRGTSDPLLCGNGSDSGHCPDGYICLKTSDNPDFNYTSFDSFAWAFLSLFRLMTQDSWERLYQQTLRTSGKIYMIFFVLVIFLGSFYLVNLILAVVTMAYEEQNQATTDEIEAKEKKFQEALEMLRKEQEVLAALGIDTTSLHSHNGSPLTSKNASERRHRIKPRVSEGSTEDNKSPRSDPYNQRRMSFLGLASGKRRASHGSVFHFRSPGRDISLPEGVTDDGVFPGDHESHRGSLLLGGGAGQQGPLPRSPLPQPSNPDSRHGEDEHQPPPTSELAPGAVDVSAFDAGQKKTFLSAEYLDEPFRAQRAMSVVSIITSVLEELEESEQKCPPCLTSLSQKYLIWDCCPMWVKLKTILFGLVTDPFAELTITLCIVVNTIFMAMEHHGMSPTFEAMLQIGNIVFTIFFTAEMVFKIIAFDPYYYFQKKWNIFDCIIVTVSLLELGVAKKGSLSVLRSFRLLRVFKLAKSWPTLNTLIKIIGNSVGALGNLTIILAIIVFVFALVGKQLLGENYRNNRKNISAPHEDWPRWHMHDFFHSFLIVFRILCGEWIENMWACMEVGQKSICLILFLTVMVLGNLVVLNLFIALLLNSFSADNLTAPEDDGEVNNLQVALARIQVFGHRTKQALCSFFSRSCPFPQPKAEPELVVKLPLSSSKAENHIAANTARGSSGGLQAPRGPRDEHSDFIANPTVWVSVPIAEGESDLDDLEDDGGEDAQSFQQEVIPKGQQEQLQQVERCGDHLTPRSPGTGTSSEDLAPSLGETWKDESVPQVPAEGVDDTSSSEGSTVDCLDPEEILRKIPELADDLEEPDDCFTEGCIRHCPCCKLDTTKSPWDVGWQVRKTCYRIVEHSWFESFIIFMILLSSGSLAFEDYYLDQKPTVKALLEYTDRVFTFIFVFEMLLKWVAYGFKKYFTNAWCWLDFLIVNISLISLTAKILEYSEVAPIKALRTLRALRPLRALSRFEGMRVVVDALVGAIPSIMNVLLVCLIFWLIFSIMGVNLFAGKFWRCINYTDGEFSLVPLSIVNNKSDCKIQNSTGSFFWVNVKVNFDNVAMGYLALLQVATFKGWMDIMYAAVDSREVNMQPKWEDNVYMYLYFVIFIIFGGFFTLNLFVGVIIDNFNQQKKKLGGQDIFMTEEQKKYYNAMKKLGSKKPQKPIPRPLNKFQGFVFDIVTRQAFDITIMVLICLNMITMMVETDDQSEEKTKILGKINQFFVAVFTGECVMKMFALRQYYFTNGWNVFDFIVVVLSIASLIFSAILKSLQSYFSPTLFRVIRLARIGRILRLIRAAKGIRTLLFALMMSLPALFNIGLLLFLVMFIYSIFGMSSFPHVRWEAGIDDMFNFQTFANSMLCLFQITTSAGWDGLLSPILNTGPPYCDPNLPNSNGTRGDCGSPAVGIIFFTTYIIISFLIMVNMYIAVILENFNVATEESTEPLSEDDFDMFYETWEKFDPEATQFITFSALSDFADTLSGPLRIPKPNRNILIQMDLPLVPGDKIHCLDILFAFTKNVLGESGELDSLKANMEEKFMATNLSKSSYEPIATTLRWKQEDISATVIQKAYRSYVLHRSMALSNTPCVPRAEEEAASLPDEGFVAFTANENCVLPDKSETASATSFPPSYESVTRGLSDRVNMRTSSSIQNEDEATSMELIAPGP
human Nav1.8, sequence (Q07699 19-218 partner): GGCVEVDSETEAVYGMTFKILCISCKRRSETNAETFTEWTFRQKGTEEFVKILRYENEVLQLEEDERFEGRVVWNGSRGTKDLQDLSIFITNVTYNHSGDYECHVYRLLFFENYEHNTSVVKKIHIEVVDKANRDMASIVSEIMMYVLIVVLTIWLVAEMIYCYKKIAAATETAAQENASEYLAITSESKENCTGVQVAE

Nav1.8, pIC50 | IC50 | Structure (SMILES)
6.8 |  | CC1NCCc2[nH]c(=O)ccc2N2CN(c3ccc(C(F)(F)F)cc3C2=O)c2ccc(F)cc21 (racemic) [Example 114, 8-Fluoro-10-methyl-2-(trifluoromethyl)-10,11,12,13-tetrahydro-19H-5,18-methanodibenzo[c,f]-pyrido[3,2-j][1,5,9]triazacyclotridecine-15,19(14H)-dione hydrochloride]
7.3 |  | CC1NCCc2[nH]c(=O)ccc2N2CN(c3cc(C(F)(F)F)c(F)cc3C2=O)c2ccc(F)cc21 (racemic) [Example 117, 2,8-Difluoro-10-methyl-3-(trifluoromethyl)-10,11,12,13-tetrahydro-19H-5,18-methanodibenzo-[c,f]pyrido[3,2-j][1,5,9]triazacyclotridecine-15,19(14H)-dione hydrochloride]
7 |  | CC1NCCc2[nH]c(=O)ccc2N2CN(c3cc(Cl)c(F)cc3C2=O)c2ccc(F)cc21 (racemic) [Example 120, 3-Chloro-2,8-difluoro-10-methyl-10,11,12,13-tetrahydro-19H-5,18-methanodibenzo[c,f]pyrido-[3,2-j][1,5,9]triazacyclotridecine-15,19(14H)-dione hydrochloride]
6.1 |  | CC1Cc2[nH]c(=O)ccc2N2CN(c3ccc(F)cc3CN1)c1cc(C(F)(F)F)c(F)cc1C2=O (racemic) [Example 123, 2,8-Difluoro-12-methyl-3-(trifluoromethyl)-10,11,12,13-tetrahydro-19H-5,18-methanodibenzo-[c,f]pyrido[3,2-j][1,5,9]triazacyclotridecine-15,19(14H)-dione hydrochloride]
 | 1580 nM | CC1Cc2[nH]c(=O)ccc2N2CN(c3ccc(F)cc3CN1)c1cc(C(F)(F)F)c(F)cc1C2=O (single isomer, unassigned; isomer 1) [Example 124, 2,8-difluoro-12-methyl-3-(trifluoromethyl)-10,11,12,13-tetrahydro-19H-5,18-methanodibenzo[c,f]pyrido[3,2-j][1,5,9]triazacyclotridecine-15,19(14H)-dione, Isomer 1]
 | 631 nM | CC1Cc2[nH]c(=O)ccc2N2CN(c3ccc(F)cc3CN1)c1cc(C(F)(F)F)c(F)cc1C2=O (single isomer, unassigned; isomer 2) [Example 125, 2,8-difluoro-12-methyl-3-(trifluoromethyl)-10,11,12,13-tetrahydro-19H-5,18-methanodibenzo[c,f]pyrido[3,2-j][1,5,9]triazacyclotridecine-15,19(14H)-dione, Isomer 2]
7.3 |  | CN1CCCCc2cc(F)ccc2N2CN(C(=O)c3ccc(C(F)(F)F)cc32)c2ccc(=O)[nH]c21 [Example 13, 3^4-Fluoro-8-methyl-2^7-(trifluoromethyl)-1^1,1^2,2^1,2^2,2^3,2^4-hexahydro-8-aza-2(3,1)-quinazolina-1(5,6)-pyridina-3(1,2)-benzenacyclooctaphan-1^2,2^4-dione]
6.9 |  | CN1CCCCc2cc(F)ccc2N2CN(C(=O)c3ccc(C(F)(F)F)cc32)c2cc(I)c(=O)[nH]c21 [Example 14, 3^4-Fluoro-1^3-iodo-8-methyl-2^7-(trifluoromethyl)-1^1, 1^2,2^1,2^2,2^3,2^4-hexahydro-8-aza-2(3,1)-quinazolina-1(5,6)-pyridina-3(1,2)-benzenacyclooctaphan-1^2,2^4-dione]
5.7 |  | O=C1c2cc(C(F)(F)F)ccc2N2CN1c1ccc(=O)[nH]c1NCCOc1cc(F)ccc12 [Example 15, 8-Fluoro-2-(trifluoromethyl)-12,13-dihydro-11H,19H-5,18-methanodibenzo[i,j]pyrido[2,3-e][1]oxa[4,7,11]triazacyclotridecine-15,19(14H)-dione]

Continued, compound first:

Structure (SMILES) | Nav1.8, pIC50 | IC50
O=C1c2cc(C(F)(F)F)ccc2N2CN1c1ccc(=O)[nH]c1/C=C/Cc1cc(F)ccc12 [Example 1, (E)-8-Fluoro-2-(trifluoromethyl)-13-hydro-10H, 18H,-5,17-methanodibenzo[b,k]pyrido[3,2-f][1,5]diazacyclododecine-14,18-dione] | 5.1 | 
O=C1c2cc(C(F)(F)F)ccc2N2CN1c1ccc(=O)[nH]c1CCCc1cc(F)ccc12 [Example 2, 14-Fluoro-8-(trifluoromethyl)-17,18-dihydro-1H,6H-5,11-methanodibenzo[b,k]pyridino[3,2-f][1,5]diazacyclododecine-2,6(16H)-dione] | 6.0 | 
O=C1c2cc(C(F)(F)F)ccc2N2CN1c1ccc(=O)[nH]c1C/C=C\Cc1cc(F)ccc12 [Example 3, 8-Fluoro-2-(trifluoromethyl)-10,13-dihydro-19H-5,18-methanodibenzo[b,l]pyrido[3,2-f][1,5]diazacyclotridecine-15,19(14H)-dione] | 6.4 | 
O=C1c2cc(C(F)(F)F)ccc2N2CN1c1ccc(=O)[nH]c1CCCCc1cc(F)ccc12 [Example 4, 8-Fluoro-2-(trifluoromethyl)-10,11,12,13-tetrahydro-19H-5,18-methanodibenzo[b,l]pyridino[3,2-f][1,5]diazacyclotridecine-15,19(14H)-dione] | 6.8 | 
O=C1c2ccc(C(F)(F)F)cc2N2CN1c1ccc(=O)[nH]c1C/C=C\Cc1cc(F)ccc12 [Example 5, 8-Fluoro-3-(trifluoromethyl)-10,13-dihydro-19H-5,18-methanodibenzo[b,l]pyrido[3,2f][1,5]diazacyclo tridecin-15,19(14H)-dione] | 6.3 | 
O=C1c2ccc(C(F)(F)F)cc2N2CN1c1ccc(=O)[nH]c1CCCCc1cc(F)ccc12 [Example 6, 8-fluoro-3-(trifluoromethyl)-10,11,12,13-tetrahydro-19H-5,18-methanodibenzo[b,l]pyridino[3,2-f][1,5]diazacyclotridecine-15,19(14H)-dione] | 7.1 | 
O=C1c2cc(C(F)(F)F)ccc2N2CN1c1ccc(=O)[nH]c1CCCCCc1cc(F)ccc12 [Example 7, 3^4-Fluoro-2^6-(trifluoromethyl)-1^1,1^2,2^1,2^2,2^3,2^4-hexahydro-2(3,1)-quinazolina-1(5,6)-pyridina-3(1,2)-benzenacyclooctaphane-1^2,2^4-dione] | 8.1 | 
O=C1c2ccc(C(F)(F)F)cc2N2CN1c1ccc(=O)[nH]c1CCCCCc1cc(F)ccc12 [Example 8, 3^4-Fluoro-2^7-(trifluoromethyl)-1^1,1^2,2^1,2^2,2^3,2^4-hexahydro-2(3,1)-quinazolina-1(5,6)-pyridina-3(1,2)-benzenacyclooctaphane-1^2,2^4-dione] | 8.4 | 
O=C1c2cnc(C(F)(F)F)cc2N2CN1c1ccc(=O)[nH]c1CCCCCc1cc(F)ccc12 [Example 9, 3^4-Fluoro-2^7-(trifluoromethyl)-1^1,1^2,2^1,2^2,2^3,2^4-hexahydro-2(3,1)-pyrido[4,3-d]pyrimidina-1(5,6)-pyridina-3(1,2)-benzenacyclooctaphane-1^2,2^4-dione] | 7.3 | 
O=C1c2cc(C(F)(F)F)ccc2N2CN1c1ccc(=O)[nH]c1CCCCCCc1cc(F)ccc12 [Example 10, 3^4-Fluoro-2^6-(trifluoromethyl)-1^1,1^2,2^1,2^2,2^3,2^4-hexahydro-2(3,1)-quinazolina-1(5,6)-pyridina-3(1,2)-benzenacyclononaphane-1^2,2^4-dione] | 6.5 | 
O=C1c2cc(C(F)(F)F)ccc2N2CN1c1ccc(=O)[nH]c1NCCCCc1cc(F)ccc12 [Example 11, 3^4-Fluoro-2^6-(trifluoromethyl)-1^1,1^2,2^1,2^2,2^3,2^4-hexahydro-8-aza-2(3,1)-quinazolina-1(5,6)-pyridina-3(1,2)-benzenacyclooctaphane-1^2,2^4-dione] | 7.3 | 
O=C1c2ccc(C(F)(F)F)cc2N2CN1c1ccc(=O)[nH]c1NCCCCc1cc(F)ccc12 [Example 12, 3^4-Fluoro-2^7-(trifluoromethyl)-1^1,1^2,2^1,2^2,2^3,2^4-hexahydro-8-aza-2(3,1)-quinazolina-1(5,6)-pyridina-3(1,2)-benzenacyclooctaphane-1^2,2^4-dione] | 7.6 | 
